Read-outs that look alike come from different tables or passages of the source.
Columns and labels:
[1] = Pharmacokinetics of oral omeprazole (40 mg) alone or with fresh grape juice in healthy male volunteers, plasma HPLC-UV, non-compartmental analysis; format: in vivo, human; conditions: for AUC / Tmax / Cmax: male, human, plasma; for AUC / Cmax: 40 mg
Experimental: The open-label and randomized study design was used to conduct the study in normal, healthy male volunteers. All volunteers were directed not to take any type of medication, including herbal medicines, for 2 weeks prior to clinical trials. Volunteers were divided into two groups. In treatment period-I, after overnight fasting, volunteers in group A received omeprazole (40 mg) alone, and volunteers in group B, […], were administered omeprazole (40 mg) along with grape juice (≈ 250 mL) on the fourth day. […] The volunteers in group B were given omeprazole (40 mg) alone. […] Blood samples (≈ 3 mL) were collected from each volunteer before the administration of the drug, as a blank, and following the administration of the drug at 0 […], and 24 h, in EDTA blood collection tubes. […] It was then centrifuged at 5,000 rpm for 5 min at -3°C. The supernatant was removed and evaporated in a nitrogen flux and then reconstituted in the mobile phase up to 0.5 mL and stored in a refrigerator. The samples were analyzed using a validated HPLC/UV-Vis chromatographic method developed for plasma sample analysis. The plasma samples were thawed on ice at room temperature and processed for analysis using the developed method. A calibration curve was plotted for varying concentrations of omeprazole, keeping the concentration of pantoprazole constant, and used as an internal standard. […] The concentration of pantoprazole was kept at 1 μg/ml as an internal standard. The concentration of omeprazole was 1 μg/mL, 1.5 μg/mL, and 2 μg/mL, and the concentration of internal standard was 1 μg/mL. The pharmacokinetic parameters of plasma omeprazole were calculated for each individual, using non-compartmental analysis of plasma concentration-time data with the help of PK-Summit® software. Cmax, the maximum plasma concentration, and tmax, the time to reach the maximum plasma concentration, were directly calculated from the analyzed data. The terminal half-life was calculated using the equation 0.693/kel, where kel represents the value of the elimination rate constant. The area under the plasma concentration-time curve was calculated according to the trapezoidal rule over the time interval 0 to the last measurable concentration (AUC0-t) and subsequent extrapolation to time infinity (AUC0-∞). The first moment of the plasma concentration vs. time curve (AUMC) is the plasma concentration multiplied by time vs. the time curve calculated by the same trapezoidal rule. The total body clearance (CL/F) was calculated as dose/AUC0-∞. The volume of distribution was calculated by multiplying total body clearance with the mean residence time (MRT). Statistical analysis was performed by paired t-test, and the pharmacokinetic parameters of omeprazole with water were compared with the parameters obtained from omeprazole administered with grape juice.

[2] = previously reported range; cited from earlier work
[3] = Pharmacokinetics of oral omeprazole (40 mg) alone or with fresh grape juice in healthy male volunteers, plasma HPLC-UV, non-compartmental analysis; format: in vivo, human; conditions: regular intake of 250 mL grape juice for 1 week before omeprazole
[4] = with repeated doses; cited from earlier work
[5] = tested on: H+/K+ ATPase or proton pump in parietal cells; design: method as in Kromer et al., 1999; conditions: ref Kromer et al., 1999; cited from earlier work
[6] = design: method as in Dong et al., 1999; conditions: following administration of grape juice, healthy Chinese subjects; ref Dong et al., 1999; cited from earlier work

COc1ccc2[nH]c([S+]([O-])Cc3ncc(C)c(OC)c3C)nc2c1 (centres unmarked) [Omeprazole]
AUC ([1]; oral, omeprazole 40 mg with water, read-out: AUC0 ∞): 6000 ± 1540 ng·h/mL
Tmax ([1]; oral, omeprazole 40 mg co-administered with fresh grape juice, read-out: mean time to reach the maximum plasma concentration (converted)): 2.09 h
Cmax ([1]; po, omeprazole 40 mg oral alone with water, mean): 1950 ng/mL
AUC ([1]; po, omeprazole 40 mg oral alone with water, mean, read-out: AUC0t): 5840 ng·h/mL
AUC ([1]; po, omeprazole 40 mg oral alone with water, mean, read-out: AUC0∞): 6000 ng·h/mL
AUC ([1]; po, omeprazole 40 mg oral alone with water, read-out: AUC0 t): 5840 ng·h/mL
AUC ([1]; po, omeprazole 40 mg oral alone, Table 4, read-out: AUC0∞): 6000 ng·h/mL
Cmax ([1]; po, omeprazole 40 mg oral with 250 mL fresh grape juice after prior juice intake, mean): 1020 ng/mL
AUC ([1]; po, omeprazole 40 mg oral with fresh grape juice, mean, read-out: AUC0 t): 2830 ng·h/mL
AUC ([1]; po, omeprazole 40 mg oral with fresh grape juice, mean, read-out: AUC0∞): 2910 ng·h/mL
Tmax ([1]; omeprazole 40 mg oral with fresh grape juice, mean, read-out: Tmax): 2.09 h
AUMC0∞ ([1]; omeprazole 40 mg oral alone with water, mean): 19.6 µg.hr*hr/mL
AUMC0∞ ([1]; omeprazole 40 mg oral alone, Table 4): 19.6 µg.hr*h/mL
AUMC0∞ ([1]; omeprazole 40 mg oral with fresh grape juice, mean): 10.36 µg.h*h/mL
AUMC0∞ ([1]; omeprazole 40 mg oral with grape juice, Table 4): 10.36 µg.hr*h/mL
effect of grape juice on mean value of clearance ([1]; omeprazole with grape juice versus alone): increased
Ratio (OMP + juice/OMP) of AUC0 t ([1]; with grape juice versus alone): 0.4846
Ratio (OMP + juice/OMP) of AUC0∞ ([1]; with grape juice versus alone): 0.485
Ratio (OMP + juice/OMP) of AUMC0∞ ([1]; with grape juice versus alone): 0.5286
Ratio (OMP + juice/OMP) of Cmax ([1]; with grape juice versus alone): 0.5212
Ratio (OMP + juice/OMP) of Tmax ([1]; with grape juice versus alone): 1.045
tmax, range already reported [2]: 2 to 3 h
effect of grape juice on half-life [3]: not affected
increase of bioavailability [4]: up to 60%
duration of inhibition of gastric acid secretion [5]: up to 36 h

CCOc1ccc(NC(C)=O)cc1 [phenacetin]
change of AUC [6]: reduced AUC

Reference: PMC11652163, “Impact of fresh grape juice on the pharmacokinetics of omeprazole: results of a food–drug interaction study” (Frontiers in Pharmacology, 2024)
